{"source": "patent EP3939596A1", "about": "“A COMPOSITION FOR TREATING HELMINTH INFESTATION IN A MAMMAL” (Bimeda Animal Health Limited, priority 2020, dated 2022)", "key": {"[1]": {"test": "Solubility of α-hederin in 1,2-propanediol", "format": "physicochemical"}, "adult fluke": {"system": "adult fluke", "test": "In-vivo efficacy study: fluke counts at post mortem in infected sheep after oral treatment, compared with untreated control sheep", "settings": "50 mg/kg", "description": "Four sheep infected with adult fluke were treated with an IVL-11 oral solution formulation of Table 1: Table 1\nThe solution was orally administered to the sheep to provide a dosage of α-hederin of 50 mg/kg and then worm counts compared to counts in untreated control sheep. Table 2: summary of efficacy following treatment of four sheep with IVL-11 orally at 50mg/kg compared with fluke counts in untreated control sheep"}, "[2]": {"test": "Stability of α-hederin solutions on storage (visual)", "format": "physicochemical", "settings": "for stability of solution: 10 wt.% α-hederin in 85.5 wt.% 1,2-Propanediol and 4.5 wt.% Benzyl alcohol"}, "[3]": {"test": "Plasma/blood level after oral administration", "format": "in vivo", "settings": "treated sheep", "description": "The Applicant has addressed the problems of the prior art by identifying a natural compound present in ivy (Hedera) that is effective at treating helminth infestations in a mammal. The natural compound is α-hederin, a water soluble pentacyclic triterpenoid saponin. The compound is quite a large molecule and would not be anticipated to be absorbed from the rumen following oral administration, but would be expected to be absorbed from the small intestine. […] This is highly surprising given the low plasma levels of α-hederin in treated sheep.\nIVL-11 is a relatively large particle and so would not be anticipated to be absorbed from the rumen following oral administration. Instead, absorption from the small intestine would be predicted."}}, "data": [{"substance": "α-hederin [IVL-11]", "values": [{"measurement": "solubility in 1,2-propanediol", "setting": "[1]; 5% α-hederin in 1,2-propanediol", "result": "soluble"}, {"measurement": "solubility in 1,2-propanediol", "setting": "[1]; 10% α-hederin in 1,2-propanediol", "result": "soluble"}, {"measurement": "Arithmetic mean number of fluke at post mortem", "setting": "adult fluke; oral solution, 4 sheep", "result": 83}, {"measurement": "% efficacy (reduction in average fluke numbers compared to the control sheep)", "setting": "adult fluke; oral, vs untreated control sheep", "result": 21.6, "unit": "%"}, {"measurement": "stability (appearance) of solution in 1,2-propanediol", "setting": "[2]; 5 % solution, 13 days at room temperature", "result": "cloudy at the top"}, {"measurement": "stability (appearance) of solution in 1,2-propanediol", "setting": "[2]; 10 % solution, 13 days at room temperature", "result": "became cloudy"}, {"measurement": "stability of solution", "setting": "[2]; 6 months at 5°C", "result": "stable"}, {"measurement": "stability of solution", "setting": "[2]; 6 months at room temperature", "result": "stable"}, {"measurement": "stability (appearance) of solution in 1,2-propanediol", "setting": "[2]; 35°C, over 3 weeks", "result": "no visible changes"}, {"measurement": "plasma / blood levels following administration in vivo", "setting": "[3]", "result": "low"}]}]}
